Results as given in US20060084599A1, “Compositions, methods and kits relating to notch signaling” (Maine Medical Center, priority 2003, published 2006).

Legend:
[1] = system: NIH 3T3 cell transfectants; assay: Immunofluorescence microscopy of actin stress fibers and focal adhesion sites; assay type: cell-based, mouse; settings: stable NIH 3T3 cell transfectants expressing the ligand
Description: Immunofluorescence Microscopy. Cells were plated on glass coverslips and fixed with 4% (v/v) paraformaldehyde. Actin stress fibers were visualized by FITC-conjugated phalloidin (Sigma), a monoclonal anti-vinculin antibody (Sigma) was used to visualize focal adhesion sites, and a monoclonal anti-β-catenin antibody (BD Transduction Laboratories) and a monoclonal anti-pan cadherin antibody (Sigma) were both used to visualize cell-cell adhesions. Immunofluorescent staining and confocal microscopy were performed as previously described (Small et al., 2001, J. Biol. Chem. 276:32022-32030).

[2] = system: CBF1-responsive promoter; assay: Dual luciferase assay of CSL-dependent transcription (Example 3); assay type: cell-based, mouse; settings: NIH 3T3 cells and N1IC NIH 3T3 cells expressing the ligand
Description: Dual Luciferase Assay. CSL-dependent transcription was quantitated as previously described (Small et al., 2001, J. Biol. Chem. 276:32022-32030; Small et al., 2003, J. Biol. Chem. 278:16405-16413). Briefly, approximately 5×10^4 cells representing insert-less vector control, sDl1, sJ1, dominant-negative Notch1 (dnN1), dominant-negative Notch2 (dnN2) (Small et al., 2001, J. Biol. Chem. 276:32022-32030), sDl1/dnSrc and sJ1/dnSrc stable NIH 3T3 cell transfectants were plated on 12-well plastic plates (Falcon) coated with fibronectin (10 μg/cm^2). The cells were transiently transfected at 60% confluence with 500 ng of the CBF1-responsive Luciferase construct (Small et al., 2001, J. Biol. Chem. 276:32022-32030) and 100 ng of a Renilla SV40 construct (Promega) which was utilized as an internal control for transfection efficiency. Gene Juice (Novagen) was used as a transfection reagent. Some of the samples also contained 200 ng of a DNA construct encoding the truncated intracellular constitutively active form of Notch1 (N1IC) (Small et al., 2001, J. Biol. Chem. 276:32022-32030). […] Individual assays were performed in triplicate and the Luciferase/Renilla activity was measured using Dual-Luciferase Reporter Assay System (Promega) 48 hrs following the transient transfection.

[3] = system: NCSC populations; assay: Dosage sensitivity of secondary NCSC to BMP2 and sDl1; assay type: cell-based, murine; settings: founders expanded 18 days; BMP2 and sDl1 dose response
Description: It is well established that quantitative changes in the dosage sensitivity of NCSC populations occur in vitro and in vivo during NCSC self-renewal (Kubu et al., 2002, Dev. Biol. 244:199-214; White et al., 1999, Development 126:4351-4363; White et al., 2001, Neuron 29:57-71). In order to resolve whether it was possible to clonally expand stem cell populations without the loss of qualitative or quantitative differentiation potential, it was evaluated whether NCSC population expansion in either a thrombin or a sJ 1 environment was able to maintain the quantitative dosage sensitivity of the NCSC populations to instructive differentiation factors. NCSC clones were expanded with either thrombin, TRAP, or sJ1 for 18 days, the clones dissociated to a clonal density every 6 days to minimize cell-cell interactions, and the p75^+/P0^− cells identified. The dosage sensitivity of secondary NCSC populations to both BMP2 and sDl1 was evaluated using the clonogenic differentiation assay to quantitate the production of neuron-only clones (BMP2) and glial-only clones (sDl1) after day 18.

[4] = system: CSL1-dependent transcription; assay: Dual luciferase reporter assay of CSL1-dependent transcription (Example 2); assay type: cell-based, murine; settings: for CSL1-dependent transcription, level relative to control: thrombin on full-length Jagged1 NIH 3T3 transfectants, sJ1 expression, 10 ng/ml exogenous FGF1
Description: Insert-less vector control and sJ1 NIH 3T3 cell transfectants (approximately 3×10^4) were plated on fibronectin-coated (10 μg/cm^2) cell culture dishes and the cells were transiently transfected at approximately 50% confluency with 500 ng of a luciferase construct containing four tandem copies of the CBF1 response element (Small et al., 2001, J. Biol. Chem. 276:32022-32030).
Cotransfection with 100 ng of the TK Renilla (Promega) construct was used as an internal control for transfection efficiency using Fugene 6 (Roche), according to the manufacturer's instructions. Cells were treated with or without 10, […] hours after transfection, harvested 48 hours after the transfection and luciferase/renilla activity measured using the Dual Luciferase Reporter Assay System (Promega). Each experiment was performed in triplicate.

[5] = system: FGF1R136K NIH 3T3 cell transfectants; assay: Thrombin stimulation and immunoblot analysis of FGF1 release; assay type: cell-based, murine
Description: FGF1R136K NIH 3T3 cell transfectants or adenovirally-transduced NIH 3T3 cells were washed with DMEM containing 5 units/ml of heparin (Sigma) and stimulated with either 10 μg/ml α-thrombin (a gift from Dr. J. Fenton) or 5 μM TRAP (Sigma) at 37° C. for different periods of time. Control cells were incubated in the absence of thrombin for the same time period. Conditioned media were collected at each time period, filtered, and concentrated as previously described (Jackson et al., 1992, Proc. Natl. Acad. Sci. U.S.A. 89:10691-10695). The concentrates were resolved by SDS-PAGE and subjected to immunoblot analysis using a rabbit antibody against either FGF1 (Jackson et al., 1992), Syt1 (LaVallee et al., 1998, J. Biol. Chem. 273:22217-22223) or Myc (Oncogene). The heat shock-induced release of FGF1 was performed at 42° C. for 110 minutes as previously described (Jackson et al., 1992). Cell viability was assessed by measuring lactate dehydrogenase activity in the conditioned medium after filtration as disclosed previously elsewhere herein (published as Mandinova et al., 2003, J. Cell Sci. 116:2687-2696), and total cell lysates were obtained and processed for immunoblot analysis as described (Landriscina et al., 2001, J. Biol. Chem. 276:22544-22552).
Stable FGF1R136K NIH 3T3 cell transfectants were pre-incubated with either 100 ng/ml pertussis toxin (PTX) or 10 ng/ml cholera toxin (CT) for 60 minutes at 37° C. in DMEM containing 10% BCS. After pre-incubation, the cells were washed, stimulated with 10 μg/ml of thrombin for different periods of time in the presence of either 100 ng/ml PTX or 10 ng/ml CT, conditioned medium collected, and subjected to immunoblot analysis as described above.

Row | Molecule | F-actin stress fibers and focal adhesion sites [1] | transactivation of the CBF1-responsive promoter [2] | shift in sensitivity of secondary stem cells to instructive differentiation signals [3] | CSL1-dependent transcription, level relative to control [4] | time after which detectable extracellular FGF-1 was present ([5]; 37° C.) [min] | effect on Notch-dependent CSL1 activity ([4]; full-length Jagged1 NIH 3T3 cell transfectants) | export of FGF2 [5] | thrombin concentration giving maximal release of FGF1R136K ([5]; 37° C.) [µg/mL] | release of FGF1R136K into the extracellular compartment ([5]; 37° C., 10 μg/ml α-thrombin or 5 μM TRAP) | release of FGF1R136K from cells transduced with constitutively active Notch1 ([5]; caN1-transduced FGF1R136K NIH 3T3 cells) | release of S100A13 ([5]; cells co-expressing S100A13 and FGF1R136K, 37° C.) | release of p40 Syt1 ([5]; p40 Syt1-transduced FGF1R136K NIH 3T3 cells)
1 | sJ1: Soluble Jagged1, amino acid residues about 1 to 1067 (SEQ ID NO:3) of full-length human Jagged1 | significantly reduced actin stress fibers and focal adhesion sites | inhibited the transactivation of the CBF1-responsive promoter | this shift in sensitivity to instructive differentiation signals was not observed | approximately 25 % of the control level | 5 |  |  |  |  |  |  | 
2 | thrombin |  |  | this shift in sensitivity to instructive differentiation signals was not observed | approximately 75 % of the control level | 5 | able to reduce the level of Notch-dependent CSL1 activity in a dose-dependent manner | unable to induce the export of FGF2 | 10 | rapid and sustained appearance of the FGF1R136K mutant in the extracellular compartment | unable to initiate the release of the FGF1R136K mutant | presence of S100A13 in the extracellular compartment with kinetics similar to that observed with FGF1 | presence of p40 Syt1in the extracellular compartment
3 | sDl1: soluble non-transmembrane form (extracellular domain) of the Notch ligand Delta1 (protein, left off: small tags and cut ends, soluble non-transmembrane form (extracellular domain) of the Notch ligand Delta1) QVWSSGVFELKLQEFVNKKGLLGNRNCCRGGAGPPPCACRTFFRVCLKHYQASVSPEPPCTYGSAVTPVLGVDSFSLPDGGGADSAFSNPIRFPFGFTWPGTFSLIIEALHTDSPDDLATENPERLISRLATQRHLTVGEEWSQDLHSSGRTDLKYSYRFVCDEHYYGEGCSVFCRPRDDAFGHFTCGERGEKVCNPGWKGPYCTEPICLPGCDEQHGFCDKPGECKCRVGWQGRYCDECIRYPGCLHGTCQQPWQCNCQEGWGGLFCNQDLNYCTHHKPCKNGATCTNTGQGSYTCSCRPGYTGATCELGIDECDPSPCKNGGSCTDLENSYSCTCPPGFYGKICELSAMTCADGPCFNGGRCSDSPDGGYSCRCPVGYSGFNCEKKIDYCSSSPCSNGAKCVDLGDAYLCRCQAGFSGRHCDDNVDDCASSPCANGGTCRDGVNDFSCTCPPGYTGRNCSAPVSRCEHAPCHNGATCHERGHRYVCECARGYGGPNCQFLLPELPPGPAVVDLTEKLEGQGGPFPW | normal levels of F-actin stress fibers and focal adhesion sites | inhibited the transactivation of the CBF1-responsive promoter |  |  |  |  |  |  |  |  |  | 
